Measured values from US5525626A (priority 1989, dated 1996).
Entries after “also recorded” stand apart in the source; their conditions may differ.

Columns and labels:
A 431 cells = test: growth curve, epidermoidal carcinoma cells; assay type: cell-based, human; conditions: for Cell count: 10 μM/ml
Procedure: (§1) The neuroblastoma cell line and the three glioblastoma cell lines were cultivated in Ham's F10 medium enriched with 10% fetal calf serum (FCS) and the usual quantity of penicillin, streptomycin (Pen/Strep) and glutamine. The epidermoidal cell line was cultivated in modified Eagle's Medium (MEM), likewise enriched with 10% (FCS) and the usual quantity of glutamine and Pen/Strep.
(§2) In each case 5×10^4 cells were plated out in T25 bottles, the untreated cells being incubated in analogous conditions as control. The cell count was microscopically determined after 3, 5, 7, 10 and 12 days.

[1] = system: U 178 MG, TP 410 N, TP 242 MG, TP 336 MG and A 431 cells; conditions: 37.5 μM/ml, 48 hours
Procedure: as §1
Untreated cells served as a control. Subsequently, the cells were incubated for 8 hours with ^3 H-thymidine. The radioactivity absorbed by the cells was measured in the usual way.

DUKX cells = test: growth inhibition of c-myc-expressing tumor cells; assay type: cell-based, Chinese hamsters
Source text: a) DUKX cells (ovarian carcinoma cells from Chinese hamsters) which over-express "c-myc" products, were cultivated according to standard conditions, two comparative groups being grown.

[2] = system: Tp 242 MG glioblastoma cells; test: 3H-thymidine assay; assay type: cell-based; conditions: Homo sapiens
HCV cells = test: 3H-thymidine assay; assay type: cell-based
EJ cells = test: growth inhibition of bladder carcinoma cells (Table 1); assay type: cell-based, human; conditions: 200 μmol/ml, after 10 days
g-CCM cells = test: growth inhibition of anaplastic astrocytoma cells (Table 1); assay type: cell-based, human; conditions: 200 μmol/ml, after 10 days
[3] = system: Tp 410 N neuroblastoma cells; test: 3H-thymidine assay; assay type: cell-based; conditions: Homo sapiens, Neuroblastoma cell
[4] = system: Onco Mouse mammary glands-neoplasms; test: chemoprevention in transgenic mice (mammary glands-neoplasms); assay type: in vivo; conditions: 200 μM/ml in drinking water
Procedure: The chemopreventive properties of 7-OH-1,2-BP were tested on transgenic mice of the Onco Mouse™ type (mammary glands-neoplasms): […]

[5] = system: PDGF receptors and EGF system; test: expression of receptors / EGF system; assay type: cell-based; conditions: Seliger et al., unpublished results
Source text: In connection with the neoplastic transformation and increased proliferation rate of glioblastoma cells, two autocrinic loops, the EGF and the PDGF system, are discussed.

[6] = system: Tp 483 MG glioblastoma cells; test: 3H-thymidine assay; assay type: cell-based
[7] = system: brain-tumor cells (glioblastoma cells); test: growth inhibition of brain-tumor cells; assay type: cell-based; conditions: Tables 1 to 3
g-UVW cells = test: antineoplastic effect on human anaplastic astrocytoma cells (Table 1, Example 3); assay type: cell-based
Source text: The process as per Example 2 was repeated with the exception that cells of the 6-UVW line from human anaplastic astrocytoma were used and enriched in DMEM:HAM's F 12 medium (1:1) with L-glutamine and 10% FCS.

[8] = system: U 178 MG, TP 410 N, TP 242 MG, TP 336 MG and A 431 cells; test: growth curves of five tumor cell lines, comparison with coumarin; assay type: cell-based, human; conditions: corresponding concentrations, up to 12 days
Procedure: as §1, §2

DU-145 cells = test: cell growth, combination with TNF; assay type: cell-based; conditions: 7-OH-1,2-BP 500 μM/ml; TNF 1 nM/ml; combination 500 μM/1 nM; 4 days; 3×10^4 cells/well; control 51.86 + 3.06
Source text: Various cell lines (DU-145, PC-3 and LNCaP) from prostate carcinomas were used.
Initial cell count: 3×10^4 cells/well; exposure period: DU-145, PC-3: 4 days; LNCaP: 6 days

[9] = tolerance study in patients with malignant tumors; assay type: in vivo, human
Source text: Over 8 consecutive weeks the patients were examined once a week for signs of systemic toxicity and organic dysfunctions.

TP 410 N cells = test: growth curve, neuroblastoma cells; assay type: cell-based, human; conditions: for Cell count: 25 μM/ml
Procedure: as §1, §2

G-361 melanoma cells = test: 3H-thymidine assay; assay type: cell-based; conditions: Homo sapiens, G-361
[10] = 1 μM/ml, read-out: 3H-thymidine insertion (%) of control
[11] = 2 μM/ml, read-out: 3H-thymidine insertion (%) of control
[12] = 4 μM/ml, read-out: 3H-thymidine insertion (%) of control
[13] = 8 μM/ml, read-out: 3H-thymidine insertion (%) of control
[14] = 16 μM/ml, read-out: 3H-thymidine insertion (%) of control
[15] = 25 μM/ml, read-out: 3H-thymidine insertion (%) of control
[16] = 50 μM/ml, read-out: 3H-thymidine insertion (%) of control
[17] = 100 μM/ml, read-out: 3H-thymidine insertion (%) of control
[18] = 250 μM/ml, read-out: 3H-thymidine insertion (%) of control
[19] = 500 μM/ml, read-out: 3H-thymidine insertion (%) of control
[20] = Table 4, read-out: active substance concentration at which 3H-thymidine insertion was 50% inhibited
[21] = 1 μM/ml, read-out: 3H-thymidine tracer (%) of control
[22] = 2 μM/ml, read-out: 3H-thymidine tracer (%) of control
[23] = 4 μM/ml, read-out: 3H-thymidine tracer (%) of control
[24] = 8 μM/ml, read-out: 3H-thymidine tracer (%) of control
[25] = 16 μM/ml, read-out: 3H-thymidine tracer (%) of control
[26] = 25 μM/ml, read-out: 3H-thymidine tracer (%) of control
[27] = 50 μM/ml, read-out: 3H-thymidine tracer (%) of control
[28] = 250 μM/ml, read-out: 3H-thymidine tracer (%) of control
[29] = 500 μM/ml, read-out: 3H-thymidine tracer (%) of control
[30] = Table 4, *: maximum usable dosage, no 50% inhibition, read-out: active substance concentration at which 3H-thymidine insertion was 50% inhibited

O=c1ccc2ccc(O)cc2o1 [7-OH-1,2-BP, 7-hydroxy-1,2-benzopyrone]
Cell count (A 431 cells; after 3 days, control 6): 4 × 10^4
Cell count (A 431 cells; after 5 days, control 24): 10 × 10^4
Cell count (A 431 cells; after 7 days, control 45): 3 × 10^4
Cell count (A 431 cells; after 10 days, control 56): 12 × 10^4
Cell count (A 431 cells; after 12 days, control 87): 21 × 10^4
inhibition at 10 µM (A 431 cells; Homo sapiens, A-431, 288 h, 10 μM/ml (Table 2), read-out: % growth inhibition compared with control after 12 days): 76%
cytotoxic / cytostatic effect [1]: not cytotoxic for any of the cells, but cytostatic
inhibition of cell growth (DUKX cells; 100 μg/ml, 24, 48 and 72 hours, FIG. 10): dramatic inhibition of cell growth; also recorded: inhibit the cell growth of tumor cells with oncogene-overexpression
cell growth after removal of substance (DUKX cells; 24 hours, then 48 hours in 7-OH-1,2-BP-free medium, FIG. 11b1): considerable cell growth
inhibition of cell growth, second cultivation in presence of substance (DUKX cells; 24 hours, trypsin, then 48 hours in 7-OH-1,2-BP-containing medium, FIG. 11b2): cell growth was virtually completely inhibited
activity at 1 µM [2, 10]: 93%
activity at 2 µM [2, 11]: 91%
activity at 4 µM [2, 12]: 91%
activity at 8 µM [2, 13]: 84%
activity at 16 µM [2, 14]: 73%
activity at 25 µM [2, 15]: 55%
activity at 50 µM [2, 16]: 43%
activity at 100 µM [2, 17]: 39%
activity at 250 µM [2, 18]: 35%
activity at 500 µM [2, 19]: 32%
IC50 [2, 20]: 25 µM
activity at 1 µM (HCV cells; [21]): 98%
activity at 2 µM (HCV cells; [22]): 95%
activity at 4 µM (HCV cells; [23]): 88%
activity at 8 µM (HCV cells; [24]): 82%
activity at 16 µM (HCV cells; [25]): 74%
activity at 25 µM (HCV cells; [26]): 69%
activity at 50 µM (HCV cells; [27]): 63%
activity at 250 µM (HCV cells; [28]): 57%
activity at 500 µM (HCV cells; [29]): 50%
IC50 (HCV cells; [30]): 500 µM
% Growth inhibition compared with control (EJ cells): 26%
% Growth inhibition compared with control (g-CCM cells): 44%
activity at 1 µM [3, 10]: 96%
activity at 2 µM [3, 11]: 91%
activity at 4 µM [3, 12]: 80%
activity at 8 µM [3, 13]: 73%
activity at 16 µM [3, 14]: 67%
activity at 25 µM [3, 15]: 50%
activity at 50 µM [3, 16]: 48%
activity at 100 µM [3, 17]: 42%
activity at 250 µM [3, 18]: 36%
activity at 500 µM [3, 19]: 21%
IC50 [3, 20]: 25 µM
Tumor incidence (number of mice) ([4]; without substance 9/28): 3/38
Tumor incidence % ([4]; without substance 32): 8%
expression of PDGF receptors and of the EGF system [5]: not influenced
activity at 1 µM [6, 10]: 97%
activity at 2 µM [6, 11]: 95%
activity at 4 µM [6, 12]: 89%
activity at 8 µM [6, 13]: 81%
activity at 16 µM [6, 14]: 69%
activity at 25 µM [6, 15]: 66%
activity at 50 µM [6, 16]: 39%
activity at 100 µM [6, 17]: 32%
activity at 250 µM [6, 18]: 27%
activity at 500 µM [6, 19]: 25%
IC50 [6, 20]: 25 µM
growth-inhibiting effect on brain-tumor cells [7]: strong growth-inhibiting effect on brain-tumor cells
% Growth inhibition compared with control (g-UVW cells; 200 μmol/ml, after 10 days): 40%
cytostatic effect on human anaplastic astrocytoma cells (g-UVW cells; Example 3, FIG. 2): has a cytostatic effect on human anaplastic astrocytoma cells
growth-inhibiting activity (growth curve) versus control [8]: developed growth-inhibiting activity
Cell growth (DU-145 cells): 38.30 + 2.92
side-effects ([9]; 50 mg/day increased up to 2000 mg/day, 8 weeks, 60 patients): no side-effects at all had occurred
toxic side-effects ([9]; long-term administration, 7000 mg/day): Toxic side-effects were not observed
Cell count (TP 410 N cells; after 3 days, control 25): 8 × 10^4
Cell count (TP 410 N cells; after 5 days, control 45): 20 × 10^4
Cell count (TP 410 N cells; after 7 days, control 71): 36 × 10^4
inhibition at 25 µM (TP 410 N cells; Homo sapiens, Neuroblastoma cell, 288 h, 25 μM/ml (Table 2), read-out: % growth inhibition compared with control after 12 days): 62%
activity at 1 µM (G-361 melanoma cells; [21]): 94%
activity at 2 µM (G-361 melanoma cells; [22]): 91%
activity at 4 µM (G-361 melanoma cells; [23]): 77%
activity at 8 µM (G-361 melanoma cells; [24]): 77%
activity at 16 µM (G-361 melanoma cells; [25]): 74%
activity at 25 µM (G-361 melanoma cells; [26]): 68%
activity at 50 µM (G-361 melanoma cells; [27]): 58%
activity at 100 µM (G-361 melanoma cells; 100 μM/ml, read-out: 3H-thymidine tracer (%) of control): 53%
activity at 250 µM (G-361 melanoma cells; [28]): 42%
activity at 500 µM (G-361 melanoma cells; [29]): 38%
IC50 (G-361 melanoma cells; [30]): 125 µM
